In ChEMBL document CHEMBL4819078, “Bioactive Dimeric Tetrahydroxanthones with 2,2'- and 4,4'-Axial Linkages from the Entomopathogenic Fungus Aschersonia confluens” (J Nat Prod, 2021):
Values after ≈ are worked out from the molar mass of the structure shown. Active and inactive are the calls of the source. The rule behind the calls is not given here.

Columns and labels:
Vero = experiment: Cytotoxicity against African green monkey Vero cells by green fluorescent protein microplate assay; assay type: cell-based; conditions: Chlorocebus sabaeus
KB = experiment: cells; conditions: Homo sapiens
Description: Cytotoxicity against human KB cells assessed as reduction in cell viability by resazurin based fluorescence assay

NCI-H187 = experiment: cells; conditions: Homo sapiens
Description: Cytotoxicity against human NCI-H187 cells assessed as reduction in cell viability by resazurin based fluorescence assay

Bacillus cereus = experiment: Antibacterial activity against Bacillus cereus ATCC 11778 by resazurin microplate assay; assay type: functional
[1] = system: Mycobacterium tuberculosis; experiment: Antitubercular activity against Mycobacterium tuberculosis H37Ra ATCC 25177 assessed as reduction in bacterial growth after 6 to 8 days by green fluorescent protein microplate assay; assay type: functional; conditions: time 6-8 day
Pseudomonas aeruginosa = experiment: Antibacterial activity against Pseudomonas aeruginosa ATCC 15692 by CLSI based microplate assay; assay type: functional
Escherichia coli = experiment: Antibacterial activity against Escherichia coli ATCC 25922 by CLSI based microplate assay; assay type: functional
Acinetobacter baumannii = experiment: Antibacterial activity against Acinetobacter baumannii ATCC 19606 by CLSI based microplate assay; assay type: functional; conditions: ATCC 19606 = CIP 70.34 = JCM 6841
Klebsiella pneumoniae = experiment: Antibacterial activity against Klebsiella pneumoniae ATCC 700603 by CLSI based microplate assay; assay type: functional
MCF7 = experiment: cells; conditions: Homo sapiens
Description: Cytotoxicity against human MCF7 cells assessed as reduction in cell viability by resazurin based fluorescence assay

Candida albicans = experiment: Antifungal activity against Candida albicans ATCC 90028 by resazurin microplate assay; assay type: functional
Enterococcus faecium = experiment: Antibacterial activity against Enterococcus faecium ATCC 51559 by CLSI based microplate assay; assay type: functional
Plasmodium falciparum = experiment: Antimalarial activity against multi drug-resistant Plasmodium falciparum K1 infected in human erythrocytes assessed as inhibition of [G-3H]hypoxanthine uptake preincubated for 24 hrs followed by [G-3H]hypoxanthine addition and measured after 18 hrs by scintillation counting method; assay type: functional, organism-based

Structure (SMILES): Cc1c2ccncc2c(C)c2c1[nH]c1ccccc12 [ELLIPTECINE]
- IC50 (Vero): 7900 nM
- IC50 (KB): 6100 nM
- IC50 (NCI-H187): 9100 nM

Structure (SMILES): CN[C@H](CC(C)C)C(=O)N[C@H]1C(=O)N[C@@H](CC(N)=O)C(=O)N[C@H]2C(=O)N[C@H]3C(=O)N[C@H](C(=O)N[C@H](C(=O)O)c4cc(O)cc(O)c4-c4cc3ccc4O)[C@H](O)c3ccc(c(Cl)c3)Oc3cc2cc(c3O[C@@H]2O[C@H](CO)[C@@H](O)[C@H](O)[C@H]2O[C@H]2C[C@](C)(N)[C@H](O)[C@H](C)O2)Oc2ccc(cc2Cl)[C@H]1O [VANCOMYCIN]
- MIC (Bacillus cereus): 2 µg/mL (≈ 1.38 µM)

Structure (SMILES): NNC(=O)c1ccncc1 [ISONIAZID]
- MIC [1]: 0.1 µg/mL (≈ 0.729 µM)

Structure (SMILES): O=C(N[C@H](CO)[C@H](O)c1ccc([N+](=O)[O-])cc1)C(Cl)Cl [CHLORAMPHENICOL]
- MIC (Pseudomonas aeruginosa): 8 µg/mL (≈ 24.8 µM)

Structure (SMILES): CC[C@H]1OC(=O)[C@H](C)[C@@H](O[C@H]2C[C@@](C)(OC)[C@@H](O)[C@H](C)O2)[C@H](C)[C@@H](O[C@@H]2O[C@H](C)C[C@H](N(C)C)[C@H]2O)[C@](C)(O)C[C@@H](C)C(=O)[C@H](C)[C@@H](O)[C@]1(C)O [ERYTHROMYCIN]
- MIC (Escherichia coli): 25 µg/mL (≈ 34.1 µM)
- MIC (Pseudomonas aeruginosa): 32 µg/mL (≈ 43.6 µM)
- MIC (Acinetobacter baumannii): 12.5 µg/mL (≈ 17 µM)
- MIC (Klebsiella pneumoniae): 200 µg/mL (≈ 273 µM)

Structure (SMILES): CO[C@H]1CC=C2C(=O)c3c(O)cc(C)c(-c4c(C)cc(O)c5c4O[C@]4(C)C(=CC[C@H](OC)[C@H]4O)C5=O)c3O[C@@]2(C)[C@@H]1O
- IC50 (MCF7): 7500 nM
- IC50 (Vero): 1100 nM
- Activity (Candida albicans): inactive
- MIC (Enterococcus faecium): > 50 µg/mL
- Activity (Escherichia coli): inactive
- IC50 (KB): 1500 nM
- IC50 (Plasmodium falciparum): 900 nM
- Activity (Pseudomonas aeruginosa): inactive
- MIC [1]: 6.3 µg/mL (≈ 10.9 µM)
- Activity (Bacillus cereus): inactive
- Activity (Acinetobacter baumannii): inactive
- Activity (Klebsiella pneumoniae): inactive
- IC50 (NCI-H187): 800 nM

Structure (SMILES): CC[C@@H](CO)NCCN[C@@H](CC)CO [ETHAMBUTOL]
- MIC [1]: 0.9 µg/mL (≈ 4.4 µM)

Structure (SMILES): CN[C@@H]1[C@H](O[C@H]2[C@H](O[C@H]3[C@H](O)[C@@H](O)[C@H](N=C(N)N)[C@@H](O)[C@@H]3N=C(N)N)O[C@@H](C)[C@]2(O)C=O)O[C@@H](CO)[C@H](O)[C@H]1O [STREPTOMYCIN]
- MIC [1]: 0.3 µg/mL (≈ 0.516 µM)

Structure (SMILES): CO[C@H]1[C@H](O)C=C2C(=O)c3c(cc(C)c(-c4c(C)cc5c(c4O)C(=O)C4=CC[C@H](OC)[C@@H](O)[C@]4(C)O5)c3O)O[C@@]2(C)[C@@H]1O
- IC50 (MCF7): 12800 nM
- IC50 (Vero): 1200 nM
- Activity (Candida albicans): inactive
- MIC (Enterococcus faecium): > 50 µg/mL
- Activity (Escherichia coli): inactive
- IC50 (KB): 1300 nM
- IC50 (Plasmodium falciparum): 600 nM
- Activity (Pseudomonas aeruginosa): inactive
- MIC [1]: 6.3 µg/mL (≈ 10.6 µM)
- Activity (Bacillus cereus): inactive
- Activity (Acinetobacter baumannii): inactive
- Activity (Klebsiella pneumoniae): inactive
- IC50 (NCI-H187): 1000 nM

Structure (SMILES): CO[C@H]1/C=C/O[C@@]2(C)Oc3c(C)c(O)c4c(O)c(c(/C=N/N5CCN(C)CC5)c(O)c4c3C2=O)NC(=O)/C(C)=C\C=C\[C@H](C)[C@H](O)[C@@H](C)[C@@H](O)[C@@H](C)[C@H](OC(C)=O)[C@@H]1C [RIFAMPIN]
- MIC (Enterococcus faecium): 3.1 µg/mL (≈ 3.77 µM)
- MIC (Escherichia coli): 6.3 µg/mL (≈ 7.66 µM)
- MIC (Acinetobacter baumannii): 3.1 µg/mL (≈ 3.77 µM)
- MIC (Klebsiella pneumoniae): 25 µg/mL (≈ 30.4 µM)

Structure (SMILES): CO[C@H]1CC=C2C(=O)c3c(O)cc(C)c(-c4c(C)cc(O)c5c4O[C@]4(C)C(=CC(=O)[C@H](OC)[C@H]4O)C5=O)c3O[C@@]2(C)[C@@H]1O
- IC50 (MCF7): 25500 nM
- IC50 (Vero): 4200 nM
- Activity (Candida albicans): inactive
- MIC (Enterococcus faecium): > 50 µg/mL
- Activity (Escherichia coli): inactive
- IC50 (KB): 4900 nM
- IC50 (Plasmodium falciparum): 6100 nM
- Activity (Pseudomonas aeruginosa): inactive
- MIC [1]: 12.5 µg/mL (≈ 21.1 µM)
- Activity (Bacillus cereus): inactive
- Activity (Acinetobacter baumannii): inactive
- Activity (Klebsiella pneumoniae): inactive
- IC50 (NCI-H187): 1700 nM

Structure (SMILES): CO[C@H]1CC=C2C(=O)c3c(cc(C)c(-c4c(C)cc5c(c4O)C(=O)C4=CC[C@H](OC)[C@H](O)[C@]4(C)O5)c3O)O[C@@]2(C)[C@@H]1O
- IC50 (MCF7): > 86400 nM
- IC50 (Vero): 2400 nM
- Activity (Candida albicans): inactive
- MIC (Enterococcus faecium): 12.5 µg/mL (≈ 21.6 µM)
- Activity (Escherichia coli): inactive
- IC50 (KB): 3400 nM
- IC50 (Plasmodium falciparum): 1000 nM
- Activity (Pseudomonas aeruginosa): inactive
- MIC [1]: 25 µg/mL (≈ 43.2 µM)
- Activity (Bacillus cereus): inactive
- Activity (Acinetobacter baumannii): inactive
- Activity (Klebsiella pneumoniae): inactive
- IC50 (NCI-H187): 1200 nM

Structure (SMILES): CC1COc2c(N3CCN(C)CC3)c(F)cc3c(=O)c(C(=O)O)cn1c23 (configuration not stated) [OFLOXACIN]
- MIC [1]: 0.4 µg/mL (≈ 1.11 µM)

Structure (SMILES): CC/C(=C(\c1ccccc1)c1ccc(OCCN(C)C)cc1)c1ccccc1 [TAMOXIFEN]
- IC50 (MCF7): 19200 nM

Structure (SMILES): CO[C@H]1CC=C2C(=O)c3c(cc(C)c(-c4c(C)cc5c(c4O)C(=O)C4=CC[C@H](OC)[C@H](OC(C)=O)[C@]4(C)O5)c3O)O[C@@]2(C)[C@@H]1O
- IC50 (MCF7): 7200 nM
- IC50 (Vero): 900 nM
- Activity (Candida albicans): inactive
- MIC (Enterococcus faecium): 12.5 µg/mL (≈ 20.1 µM)
- Activity (Escherichia coli): inactive
- IC50 (KB): 1500 nM
- IC50 (Plasmodium falciparum): 1400 nM
- Activity (Pseudomonas aeruginosa): inactive
- MIC [1]: 6.3 µg/mL (≈ 10.2 µM)
- Activity (Bacillus cereus): inactive
- Activity (Acinetobacter baumannii): inactive
- Activity (Klebsiella pneumoniae): inactive
- IC50 (NCI-H187): 1000 nM

Structure (SMILES): C[C@@H]1[C@H](O)[C@@H](C)/C=C/C=C/C=C/C=C/C=C/C=C/C=C/[C@H](O[C@@H]2O[C@H](C)[C@@H](O)[C@H](N)[C@@H]2O)C[C@@H]2O[C@](O)(C[C@@H](O)C[C@@H](O)[C@H](O)CC[C@@H](O)C[C@@H](O)CC(=O)O[C@H]1C)C[C@H](O)[C@H]2C(=O)O [AMPHOTERICIN B]
- MIC (Candida albicans): 0.1 µg/mL (≈ 0.108 µM)

Structure (SMILES): O[C@@H](c1cc(C(F)(F)F)nc2c(C(F)(F)F)cccc12)[C@H]1CCCCN1 [(S,R)-MEFLOQUINE]
- IC50 (Plasmodium falciparum): 70 nM

Structure (SMILES): COC1=C[C@]2(C)Oc3c(c(O)cc(C)c3-c3c(C)cc(O)c4c3O[C@]3(C)C(=CC[C@H](OC)[C@H]3O)C4=O)C(=O)[C@@H]2CC1=O
- IC50 (MCF7): 17600 nM
- IC50 (Vero): 6100 nM
- Activity (Candida albicans): inactive
- MIC (Enterococcus faecium): > 50 µg/mL
- Activity (Escherichia coli): inactive
- IC50 (KB): 9700 nM
- IC50 (Plasmodium falciparum): 4800 nM
- Activity (Pseudomonas aeruginosa): inactive
- MIC [1]: 12.5 µg/mL (≈ 21.7 µM)
- Activity (Bacillus cereus): inactive
- Activity (Acinetobacter baumannii): inactive
- Activity (Klebsiella pneumoniae): inactive
- IC50 (NCI-H187): 3500 nM

Structure (SMILES): CO[C@H]1[C@H](O)C=C2C(=O)c3c(O)cc(C)c(-c4c(C)cc(O)c5c4O[C@]4(C)C(=CC[C@H](OC)[C@H]4O)C5=O)c3O[C@@]2(C)[C@@H]1O
- IC50 (MCF7): 63200 nM
- IC50 (Vero): 2200 nM
- Activity (Candida albicans): inactive
- MIC (Enterococcus faecium): > 50 µg/mL
- Activity (Escherichia coli): inactive
- IC50 (KB): 63500 nM
- IC50 (Plasmodium falciparum): 1700 nM
- Activity (Pseudomonas aeruginosa): inactive
- MIC [1]: 25 µg/mL (≈ 42 µM)
- Activity (Bacillus cereus): inactive
- Activity (Acinetobacter baumannii): inactive
- Activity (Klebsiella pneumoniae): inactive
- IC50 (NCI-H187): 1000 nM

Structure (SMILES): CO[C@H]1CC=C2C(=O)c3c(cc(C)c(-c4c(C)cc5c(c4O)C(=O)C4=CC[C@H](OC)[C@@H](O)[C@]4(C)O5)c3O)O[C@@]2(C)[C@@H]1O [ASCHERXANTHONE A]
- IC50 (MCF7): 16800 nM
- IC50 (Vero): 900 nM
- Activity (Candida albicans): inactive
- MIC (Enterococcus faecium): > 50 µg/mL
- Activity (Escherichia coli): inactive
- IC50 (KB): 3200 nM
- IC50 (Plasmodium falciparum): 1000 nM
- Activity (Pseudomonas aeruginosa): inactive
- MIC [1]: 6.3 µg/mL (≈ 10.9 µM)
- Activity (Bacillus cereus): inactive
- Activity (Acinetobacter baumannii): inactive
- Activity (Klebsiella pneumoniae): inactive
- IC50 (NCI-H187): 500 nM

Structure (SMILES): CO[C@H]1CC=C2C(=O)c3c(O)cc(C)c(-c4c(C)cc(O)c5c4O[C@]4(C)C(=CC[C@H](OC)[C@@H]4O)C5=O)c3O[C@@]2(C)[C@@H]1O
- IC50 (MCF7): 27900 nM
- IC50 (Vero): 4200 nM
- Activity (Candida albicans): inactive
- MIC (Enterococcus faecium): > 50 µg/mL
- Activity (Escherichia coli): inactive
- IC50 (KB): 4700 nM
- IC50 (Plasmodium falciparum): 2600 nM
- Activity (Pseudomonas aeruginosa): inactive
- MIC [1]: 6.3 µg/mL (≈ 10.9 µM)
- Activity (Bacillus cereus): inactive
- Activity (Acinetobacter baumannii): inactive
- Activity (Klebsiella pneumoniae): inactive
- IC50 (NCI-H187): 2800 nM
